The values that follow come from patent publication US9908879B2, “P2X3 and/or P2X2/3 compounds and methods” (Asana Biosciences, LLC, priority 2013, dated 2018).

Assay [1] addresses T1, P2X2/3 (UniProt P56373+Q9UBL9).
T1 construct: hP2X2/3 (Cat #6179)
T1 sequence (P56373 1-397): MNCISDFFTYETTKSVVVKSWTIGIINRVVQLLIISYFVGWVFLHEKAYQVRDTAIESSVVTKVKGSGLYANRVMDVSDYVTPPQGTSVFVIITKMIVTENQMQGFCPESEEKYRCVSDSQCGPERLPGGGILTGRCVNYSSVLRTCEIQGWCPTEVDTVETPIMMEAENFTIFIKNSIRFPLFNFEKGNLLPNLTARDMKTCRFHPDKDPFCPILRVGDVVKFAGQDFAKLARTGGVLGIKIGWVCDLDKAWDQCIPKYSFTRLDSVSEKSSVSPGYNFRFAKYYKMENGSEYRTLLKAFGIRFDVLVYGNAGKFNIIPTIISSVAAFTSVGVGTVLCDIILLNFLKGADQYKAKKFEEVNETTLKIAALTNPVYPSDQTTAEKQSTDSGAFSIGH
T1 sequence (Q9UBL9 1-471): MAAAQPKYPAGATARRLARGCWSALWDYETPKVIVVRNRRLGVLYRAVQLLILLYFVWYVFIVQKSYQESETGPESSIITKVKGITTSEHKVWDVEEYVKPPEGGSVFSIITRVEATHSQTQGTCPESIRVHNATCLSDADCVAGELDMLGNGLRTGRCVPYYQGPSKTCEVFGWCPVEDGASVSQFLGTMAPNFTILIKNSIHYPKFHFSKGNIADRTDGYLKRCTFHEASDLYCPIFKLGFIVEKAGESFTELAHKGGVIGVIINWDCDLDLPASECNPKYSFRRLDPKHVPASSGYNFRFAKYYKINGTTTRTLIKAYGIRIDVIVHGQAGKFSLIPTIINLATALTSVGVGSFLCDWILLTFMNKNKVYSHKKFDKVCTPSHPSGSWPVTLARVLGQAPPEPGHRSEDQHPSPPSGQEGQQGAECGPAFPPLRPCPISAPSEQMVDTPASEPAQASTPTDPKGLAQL
The assay can be described thus: FLIPR intracellular calcium assay, P2X2/3. The assay is classed as cell-based, human or rat. The following applies: agonist at EC75, species of receptor not given. An excerpt:
(§1) The FLIPR® assay utilizes cells which express human or rat P2X3 or P2X2/3 receptors. Recombinant cells expressing hP2X3 (Cat #6188) and hP2X2/3 (Cat #6179) were procured from Chantest Corp. Rat P2X2 (NCBI Accession No: U14414) was amplified by PCR from PC12 cDNA (a rat adrenal medulla cell line). The PCR product obtained containing the protein coding sequence of rat P2X2 was cloned into EcoRV-digested and dephosphorylated vector pIRES-puro3 within the multiple cloning site (MCS). See, FIG. 1A.
(§2) Cryo-vial containing 6×10^6 cells (human P2X3-HEK/human P2X2/3-TRex293/rat P2X2/3-TRex293/rat P2X3 TRex-CHO) was thawed in a 37° C. water bath. Cells were suspended in 20 mL of respective cell plating media (See annexure for composition) in a 50 mL centrifuge tube. The cell viability was checked with the help of Trypan Blue dye. Upon washing, cells were plated in a black 384-well clear bottomed, sterile poly-D-lysine coated plate such that, each well contained 10,000 cells (15,000/well for hP2X3) in 30 μL cell plating media. The plate was incubated in a 5% CO2 incubator at 37° C. for 24 h.
(§3) The next day, prior to the assay, the cell plating media was removed from each well by decanting and gentle tapping. Thirty μL of FLIPR Calcium 4 dye solution was added to each well. The plate was incubated at 37° C. for 45 min (60 min for hP2X3). The plate was next equilibrated at room temperature for 15 minutes before placing it in a 384 well FLIPR for the assay.
(§4) Compounds were dissolved in DMSO and serially diluted following 11 point half log (3.16 fold) dilution with a starting concentration of 2 mM. Dilutions were mixed with assay buffer just before performing the assay.
(§5) Compounds were added to the respective wells of the assay-ready cell plate with the help of the FLIPR and fluorescence readings were captured for 5 min to observe any possible agonistic property of the compounds. The plate was then incubated at room temperature for 15 min. The cells were stimulated with respective agonist EC75 concentration and the fluorescence readings were captured for another 5 min by FLIPR. The difference in fluorescence readings in presence of the compounds were compared with that of the control wells (wells having no compound) to calculate the inhibitory potency of the compounds. The IC50 values of the compounds were determined using the Graph pad Prism software.
A general note: A change in cytosolic calcium serves as a functional read-out for many receptors and channels.

In assay [2] the target is T2, P2X3 (UniProt P56373).
T2 sequence (P56373 1-397): T1 sequence (P56373 1-397)
The assay can be described thus: FLIPR intracellular calcium assay, P2X3. The following applies: agonist at EC75, species of receptor not given. The assay is classed as cell-based, human or rat.
From the text: as §1, §2, §3, §4, §5

The test system of assay [3] is formalin-induced hind limb flinches. The assay can be described thus: Formalin induced pain (Automated Nociception Analyzer test). The following applies: rat, oral gavage 100 mg/kg, 30 min before footpad formalin injection. The assay is classed as in vivo. On the procedure: Male Sprague Dawley rats of young adult age group and body weight range of 200-250 g were included in the study. Animals were housed under a 12 h light/dark cycle with food and water ad libitum. Animals were acclimatized in the observation chambers of Automated Nociception Analyzer (ANA) for 45-60 min, twice daily for two days prior to the study day. On the day of the study, metal bands were glued to the plantar surface of the right hind paw of each animal enrolled in the study set and kept in plastic observation chambers for 10-15 min. Formalin injection was done in the animals after 0.5 or 1 h of oral treatment with test compound or vehicle (20% polyethylene glycol, 1% TweenTM 80 reagent, 79% water). Formalin injection of the animals was done with 50 μL of 2.5% formalin (freshly prepared from formaldehyde solution, Sigma, USA, Cat # F8775) injected subcutaneously in to the dorsum of right hind paw. Animals were placed back to their respective recording chambers of ANA immediately after injection. […] count data for each animal was recorded from 1 to 60 min post formalin injection, using ANA motion analysis software. The study was analyzed in 2 phases, the early phase extended from 0-10 min and second phase extended from 11-60 min post formalin injection. The data was collected in 5 min time bins and the counts of each bin were added up for total count of the phase. […]

Assay [4] concerns acetic acid induced writhing (visceral pain). In words: Acetic acid induced writhing test. The assay is classed as in vivo. The following applies: mouse, oral gavage 20, 40 and 60 mg/kg, 30 min before i.p. acetic acid, counted 15 min. On the procedure: Swiss albino mice of 30-40 g were included in the study. The mice were given an intraperitoneal injection of 0.7% v/v acetic acid solution at an injection volume of 10 mL/kg, 30 min after oral administration of vehicle or test article control. Test articles were administered, typically, at doses between 20 and 60 mg/kg. The mice were placed individually into glass chambers. The number of writhes produced in these animals was counted for 15 min following acetic acid administration. For scoring purposes writhing was indicated by stretching of the abdomen with simultaneous stretching of at least one hind limb. See, e.g., FIG. 4. Statistical analysis was done with One way ANOVA followed by Dunnett's multiple comparison tests. Comparison was done between treatment groups and vehicle with respect to total number of writhes and p<0.05 was considered statistically significant. Each group comprised of 6 animals.
(Writhing tests count abdominal constrictions after an irritant is injected.)

With `Cc1ccc(-c2cnc3c(N4CCC(C)CC4)cc(C(=O)NCc4ccc[n+]([O-])c4)cn23)s1` [Example 147], the IC50 in assay [1] was in the range of 0.1 to 1 µM; in assay [2], 1 to 10 µM.
The like results for `Cc1ccc(-c2cnc3c(N4CCC(CF)CC4)cc(C(=O)NCc4ccc(C)[n+]([O-])c4)cn23)s1` [Example 132] were, in that order, 0.001 to 0.1 µM and 0.001 to 0.1 µM.
The like results for `COc1ccc(CNC(=O)c2cc(-n3nnnc3C3CCC3)c3ncc(-c4ccc(C)s4)n3c2)cn1` [Example 163] were, in that order, 0.001 to 0.1 µM and greater than 10 µM.
For the compound `Cc1ccc(-c2cnc3c(NC4CCCCC4)cc(C(=O)NCc4ccc(C(F)(F)F)[n+]([O-])c4)cn23)s1` [Example 124], the concentration for half-maximal inhibition (IC50) in assay [1] and in assay [2] was 0.1 to 1 µM throughout.
`Cc1ccc(-c2cnc3c(NC4CCCCC4)cc(C(=O)NCc4ccc(C)[n+]([O-])c4)cn23)s1` [Example 120]: the IC50 in assay [1] and in assay [2] was 0.001 to 0.1 µM throughout.
`CCc1cnnn1-c1cc(C(=O)NCc2ccc(C)nc2)cn2c(-c3ccc(C)s3)cnc12` [Example 22]: the “second phase flinching response to formalin” value in assay [3] is “attenuated”. Besides, the “pain responses (writhes) after acetic acid” value in assay [4] is recorded as “clear dose-related reduction”.
Consider `CCCCc1cnc2c(N3CCC(C)CC3)cc(C(=O)N[C@@H](C)c3nnc[nH]3)cn12` [Example 9, (S)—N-(1-(4H-1,2,4-Triazol-3-yl)ethyl)-3-butyl-8-(4-methylpiperidin-1-yl)imidazo[1,2-a]pyridine-6-carboxamide], for which the IC50 in assay [1] and in assay [2] was 1 to 10 µM each time.
Regarding `Cc1ccc(-c2cnc3c(Nc4ccccc4)cc(C(=O)NCc4ccc(C)[n+]([O-])c4)cn23)s1` [Example 89], the figures for the IC50 in assay [1] and in assay [2] were 0.1 to 1 µM and 0.001 to 0.1 µM, respectively.
For `Cc1ccc(-c2cnc3c(N4CCC(C)CC4)cc(C(=O)NCc4ccc(C)[n+]([O-])c4)cn23)s1` [Example 117] the same measures were 0.001 to 0.1 µM and 0.001 to 0.1 µM.
For `CCCSc1cnc2c(N3CCC(C)CC3)cc(C(=O)NCc3ccc(C)[n+]([O-])c3)cn12` [Example 114], in assay [2], the IC50 was in the range of 0.001 to 0.1 µM.
Consider `Cc1ccc(-c2cnc3c(N(C)C4CCCCC4)cc(C(=O)NCc4ccc(C)[n+]([O-])c4)cn23)s1` [Example 126], for which the IC50 in assay [1] is 0.001 to 0.1 µM; in assay [2], greater than 10 µM.
Consider `Cc1ccc(-c2cnc3c(-n4nnnc4C4CCC4)cc(C(=O)N[C@@H](C)c4nnc[nH]4)cn23)s1` [Example 165], for which the 50% inhibitory concentration (IC50) in assay [1] and in assay [2] was 0.001 to 0.1 µM throughout.
Regarding `Cc1ccc(-c2cnc3c(N4CCC(F)(F)CC4)cc(C(=O)N[C@@H](C)C4=NN=CC4)cn23)s1` [Example 143], the half-maximal inhibitory concentration (IC50) is 0.1 to 1 µM in assay [1] and 1 to 10 µM in assay [2].
Regarding `Cc1ccc(-c2cnc3c(N4CCC(F)(F)CC4)cc(C(=O)NCc4ccc(C)[n+]([O-])c4)cn23)s1` [Example 123], the values for the IC50 in assay [1] and in assay [2] were 0.001 to 0.1 µM and greater than 10 µM, respectively.
For `Cc1ccc(-c2cnc3c(-n4nnnc4C4CC4)cc(C(=O)N[C@@H](C)c4nnc[nH]4)cn23)s1` [Example 167] the same measures were 0.1 to 1 µM and 0.001 to 0.1 µM.
For `Cc1ccc(-c2cnc3c(N4CCC(C(F)(F)F)CC4)cc(C(=O)NCc4ccc(C)[n+]([O-])c4)cn23)s1` [Example 131] the same measures were 0.1 to 1 µM and 0.001 to 0.1 µM.
The like results for `Cc1cnc(-c2cnc3c(N4CCC(C)CC4)cc(C(=O)NCc4ccc(C)[n+]([O-])c4)cn23)s1` [Example 125] were, in that order, 0.1 to 1 µM and 0.1 to 1 µM.
Turning to `Cc1ccc(-c2cnc3c(N4CCC(F)CC4)cc(C(=O)NCc4ccc(C)[n+]([O-])c4)cn23)s1` [Example 127], the IC50 is 0.001 to 0.1 µM in assay [1] and greater than 10 µM in assay [2].
The like results for `Cc1ccc(CNC(=O)c2cc(N3CCC(C)CC3)c3ncc(-c4ccc(Cl)s4)n3c2)c[n+]1[O-]` [Example 119] were, in that order, 0.1 to 1 µM and 0.001 to 0.1 µM.
For `Cc1ccc(-c2cnc3c(N4CCC(C)(C)CC4)cc(C(=O)NCc4ccc(C)[n+]([O-])c4)cn23)s1` [Example 122], the half-inhibitory concentration (IC50) in assay [1] and in assay [2] was 0.001 to 0.1 µM each time.

The term IC50 denotes the concentration that inhibits the measured activity by half.
